Values of other authors in patent US7064136B2, “Compounds” (AstraZeneca AB, priority 2000, dated 2006).
Read-outs that look alike come from different tables or passages of the source. Non-standard residues stand in square brackets, D forms with d. Residues, ends and D or L forms follow the SMILES beside them. *: point of attachment. Cyclohexanecarbonyl = O=C(C1CCCCC1)*

Legend:
[1] = test system: Neurokinin receptor; conditions: Light-dark box
[2] = test system: Neurokinin receptor; conditions: Forced swim test (depression model); anti-depressant (only at 30 mg/kb bid); Vassout et al Neuropeptides 26/S1:38, 1994
[3] = test system: Neurokinin receptor
[4] = test system: Neurokinin receptor; conditions: Elevated plus-maze
[5] = test system: Neurokinin receptor; conditions: Marmoset human intruder; Walsh et al., Psychopharmacology 121:186-191, 1995
[6] = Stratton et al., Eur. J. Pharmacol. 250: R11-12, 1993
[7] = Walsh et al., Psychopharmacology 121:186-191, 1995
[8] = Teixeira et al., Eur J Pharmacol 5;311(1):7-14, 1996

In the case of `C[C@H](NC(=O)CNC(=O)C1CCCCC1)C(=O)N[C@H](Cc1c[nH]c2ccccc12)C(=O)N[C@@H](Cc1ccccc1)C(=O)N(C)C` [GR100679] (Cyclohexanecarbonyl-GA[dW]F-NMe2), the Outcome [1, 6] is given as “anxiolytic”.
In the case of `Cc1cc(C)cc(C(=O)N2CC[C@H](NCc3ccnc4ccccc34)C[C@H]2Cc2ccccc2)c1` [CGP 49823], the Outcome [2] is listed as “depressant”, the Outcome ([3]; Social interaction test, Vassout et al Neuropeptides 26/S1:38, 1994) is listed as “anxiolytic” and the Outcome ([3]; Social interaction, File Pharm Bio B 58(3):747-752, 1997) is listed as “anxiolytic”. For the same molecule, the Outcome ([4]; Vassout et al Neuropeptides 26/S1:38, 1994) was “inactive anti-”.
In the case of `CC(=O)NC1(c2ccccc2)CCN(CC[C@H](CN(C)C(=O)c2ccccc2)c2ccc(Cl)c(Cl)c2)CC1` [SR48968], the Outcome [1, 6] is given as “anxiolytic”, the Outcome [1, 7] is given as “anxiolytic” and the Outcome [4, 8] is given as “anxiolytic”. For the same molecule, the Outcome [5] was “anxiolytic”.
For `COC1(C[S@@+]([O-])c2ccccc2)CCN(CCc2c[nH]c3ccc(F)cc23)CC1` [GR159897], the Outcome [1, 7] is given as “anxiolytic” and the Outcome [5] is given as “anxiolytic”.
For `CN(Cc1ccccc1)C(=O)[C@H](Cc1ccc2ccccc2c1)NC(=O)[C@@H]1C[C@@H](O)CN1C(=O)c1cn(C)c2ccccc12` [FK888], the Outcome [4, 8] is listed as “anxiolytic”.
